This passage reports IC50 results from patent US7419969B2 (Bristol-Myers Squibb Company, priority 2004, dated 2008).

The first assay deals with T1, HIV-integrase (Human immunodeficiency virus type 1 group M subtype B, UniProt P04585).
T1 construct: Recombinant integrase (0.26 ng) was incubated with the beads
Kind of assay: in-vitro activity against HIV-integrase (HIV Integrase Inhibition, SPA bead assay). Particulars: Table 1; recombinant integrase, activity class. The class given is biochemical. The method, then: To evaluate in-vitro activity against HIV-integrase, 5 pmole of biotin labeled substrate DNA was bound to 100 μg of Streptavidin coated PVT SPA beads (Amersham Pharmacia Biotech). Recombinant integrase (0.26 ng) was incubated with the beads for 90 min at 37° C. Unbound enzyme was removed by washing the complex followed by addition of inhibitors and […] of P33 labeled target DNA. The reaction was stopped by adding EDTA to a final concentration of 10 mM. Samples were counted in TopCountNXT (Packard) and the CPM was used as a measure of integration. The reaction condition was as described in Engelman, A. and Craigie, R. J. Vitrol. 1996, 69, 5908. The sequences of substrate and target DNA were described in Nucleic Acid Research 1994, 22, 1121.
In general, IC50 refers to the point on the concentration scale where inhibition reaches its midpoint. Turning to `O=C(NCc1ccc(F)cc1)c1nc2n(c(=O)c1O)CCOC21CCOC1` (stereo not shown) [Example 36, N-[(4-fluorophenyl)methyl]-4,5,6′,7′-tetrahydro-3′-hydroxy-4′-oxo-spiro[furan-3(2H),9′(4′H)-pyrimido[2,1-c][1,4]oxazine]-2′-carboxamide], the IC50 lay within 1 to 10 nM.

For the compound `O=C(NCc1ccc(F)cc1-n1cncn1)c1nc2n(c(=O)c1O)CCOC21CCC1` [Example 51, N-[[4-fluoro-2-(1H-1,2,4-triazol-1-yl)phenyl]methyl]-6′,7′-dihydro-3′-hydroxy-4′-oxo-spiro[cyclobutane-1,9′(4′H)-pyrimido[2,1-c][1,4]oxazine]-2′-carboxamide], the IC50 was in the range of 1 to 10 nM.

Turning to `O=C(NCc1ccc(F)cc1)c1nc2n(c(=O)c1O)CCCOC21CCC1` [Example 59, N-[(4-fluorophenyl)methyl]-7′,8′-dihydro-3′-hydroxy-4′-oxo-spiro[cyclobutane-1,1 0′(4′H)-[6H]pyrimido[2,1-c][1,4]oxazepine]-2′-carboxamide], the half-inhibitory concentration (IC50) was in the range of 1 to 10 nM. On the same count and under the same terms, to `CS(=O)(=O)c1cc(F)ccc1CNC(=O)c1nc2n(c(=O)c1O)CCCC21CCC1` [Example 81, N-[[4-fluoro-2-(methylsulfonyl)phenyl]methyl]-7′,8′-dihydro-3′-hydroxy-4′-oxo-spiro[cyclobutane-1,9′(6′H)-[4H]pyrido[1,2-α]pyrimidine]-2′-carboxamide] belongs 1 to 10 nM; to `CS(=O)(=O)c1cc(F)ccc1CNC(=O)c1nc2n(c(=O)c1O)CCOC21CCOCC1` [Example 44, N-[[4-fluoro-2-(methylsulfonyl)phenyl]methyl]-2,3,5,6,6′,7′-hexahydro-3′-hydroxy-4′-oxo-spiro[4H-pyran-4,9′(4′H)-pyrimido[2,1-c][1,4]oxazine]-2′-carboxamide], 1 to 10 nM. On to `O=C(NCc1ccc(F)cc1N1CCCCS1(=O)=O)c1nc2n(c(=O)c1O)CCCC21CCC1` [Example 79, N-[[4-fluoro-2-(tetrahydro-1,1-dioxido-2H-1,2-thiazin-2-yl)phenyl]methyl]-7′,8′-dihydro-3′-hydroxy-4′-oxo-spiro[cyclobutane-1,9′(6′H)-[4H]pyrido[1,2-α]pyrimidine]-2′-carboxamide], for which the half-maximal inhibitory concentration (IC50) was 1 to 10 nM. As for `O=C(NCc1ccccc1)c1nc2n(c(=O)c1O)CCCC21CCC1` [Example 62, N-(phenylmethyl)-7′,8′-dihydro-3′-hydroxy-4′-oxo-spiro[cyclobutane-1,9′(6′H)-[4H]pyrido[1,2-α]pyrimidine]-2′-carboxamide], the IC50 lay within 1 to 10 nM. Consider `O=C(NCc1cccc(F)c1)c1nc2n(c(=O)c1O)CCCC21CCC1` [Example 67], for which the IC50 fell in the range of 1 to 10 nM.

`O=C(NCc1cc(Cl)ccc1Cl)c1nc2n(c(=O)c1O)CCCC21CCC1` [Example 76, N-[(2,5-dichlorophenyl)methyl]-7′,8′-dihydro-3′-hydroxy-4′-oxo-spiro[cyclobutane-1,9′(6′H)-[4H]pyrido[1,2-α]pyrimidine]-2′-carboxamide]: the IC50 fell in the range of 1 to 10 nM.

On to `Cc1cc(CNC(=O)c2nc3n(c(=O)c2O)CCOC32CCCC2)ccc1F` [Example 16, N-[(4-fluoro-3-methylphenyl)methyl]-6′,7′-dihydro-3′-hydroxy-4′-oxo-spiro[cyclopentane-1,9′(4′H)-pyrimido[2,1-c][1,4]oxazine]-2′-carboxamide], for which the half-maximal inhibitory concentration (IC50) was 1 to 10 nM. Still for that read-out and setting: under `COc1ccc(CNC(=O)c2nc3n(c(=O)c2O)CCOC32CCCC2)cc1` [Example 23, 6′,7′-dihydro-3′-hydroxy-N-[(4-methoxyphenyl)methyl]-4′-oxo-spiro[cyclopentane-1,9′(4′H)-pyrimido[2,1-c][1,4]oxazine]-2′-carboxamide] stands 10 to 100 nM; under `O=C(NCc1cc(F)ccc1-n1cncn1)c1nc2n(c(=O)c1O)CCOC21CCCC1` [Example 29, N-[[5-fluoro-2-(1H-1,2,4-triazol-1-yl)phenyl]methyl]-6′,7′-dihydro-3′-hydroxy-4′-oxo-spiro[cyclopentane-1,9′(4′H)-pyrimido[2,1-c][1,4]oxazine]-2′-carboxamide], 1 to 10 nM. As for `CS(=O)(=O)c1cc(F)ccc1CNC(=O)c1nc2n(c(=O)c1O)CCCC21CCCC1` [Example 11, N-[[4-fluoro-2-(methylsulfonyl)phenyl]methyl]-7′,8′-dihydro-3′-hydroxy-4′-oxo-spiro[cyclopentane-1,9′(6′H)-[4H]pyrido[1,2-α]pyrimidine]-2′-carboxamide], the IC50 fell in the range of 1 to 10 nM. Same read-out and setting: to `O=C(NCc1ccc(F)cc1-n1cncn1)c1nc2n(c(=O)c1O)CCOC21CCOCC1` [Example 41] belongs 1 to 10 nM; to `Cc1ccc(CNC(=O)c2nc3n(c(=O)c2O)CCCC32CCC2)cc1` [Example 63, N-[(4-methylphenyl)methyl]-7′,8′-dihydro-3′-hydroxy-4′-oxo-spiro[cyclobutane-1,9′(6′H)-[4H]pyrido[1,2-α]pyrimidine]-2′-carboxamide], 10 to 100 nM; to `O=C(NCc1ccccc1N1CCCCS1(=O)=O)c1nc2n(c(=O)c1O)CCOC21CCOCC1` [Example 43, N-[[2-(tetrahydro-1,1-dioxido-2H-1,2-thiazin-2-yl)phenyl]methyl]-2,3,5,6,6′,7′-hexahydro-3′-hydroxy-4′-oxo-spiro[4H-pyran-4,9′(4′H)-pyrimido[2,1-c][1,4]oxazine]-2′-carboxamide], 10 to 100 nM. Consider `O=C(NCCCc1ccc(F)cc1)c1nc2n(c(=O)c1O)CCOC21CCCC1` [Example 31, N-[3-(4-fluorophenyl)propyl]-6′,7′-dihydro-3′-hydroxy-4′-oxo-spiro[cyclopentane-1,9′(4′H)-pyrimido[2,1-c][1,4]oxazine]-2′-carboxamide], for which the IC50 lay within 10 to 100 nM.

Take `Cc1ncnn1-c1cc(F)ccc1CNC(=O)c1nc2n(c(=O)c1O)CCOC21CCOCC1` [Example 49, N-[[4-fluoro-2-(5-methyl-1H-1,2,4-triazol-1-yl)phenyl]methyl]-2,3,5,6,6′, 7-hexahydro-3′-hydroxy-4′-oxo-spiro[4H-pyran-4,9′(4′H)-pyrimido[2,1-c][1,4]oxazine]-2′-carboxamide]: the IC50 fell in the range of 1 to 10 nM.

Take `Cc1ccc(CNC(=O)c2nc3n(c(=O)c2O)CCOC32CCCC2)cc1` [Example 19, 6′,7′-dihydro-3′-hydroxy-N-[(4-methylphenyl)methyl]-4′-oxo-spiro[cyclopentane-1,9′(4′H)-pyrimido[2,1-c][1,4]oxazine]-2′-carboxamide]: the IC50 lay in the range of 10 to 100 nM. Consider `O=C(NCc1ccccc1-n1cncn1)c1nc2n(c(=O)c1O)CCOC21CCCC1` [Example 33, 6′,7′-dihydro-3′-hydroxy-4′-oxo-N-[[2-(1H-1,2,4-triazol-1-yl)phenyl]methyl]-spiro[cyclopentane-1,9′(4′H)-pyrimido[2,1-c][1,4]oxazine]-2′-carboxamide], for which the half-inhibitory concentration (IC50) lay in the range of 1 to 10 nM.

Take `CS(=O)(=O)c1cc(F)ccc1CNC(=O)c1nc2n(c(=O)c1O)CCCOC21CCC1` [Example 58, N-[[4-fluoro-2-(methylsulfonyl)phenyl]methyl]-7′,8′-dihydro-3′-hydroxy-4′-oxo-spiro[cyclobutane-1,10′(4′H)-[6H]pyrimido[2,1-c][1,4]oxazepine]-2′-carboxamide]: the IC50 lay in the range of 10 to 100 nM. For the compound `O=C(NCc1cc(F)ccc1F)c1nc2n(c(=O)c1O)CCCC21CCC1` [Example 75, N-[(2,5-difluorophenyl)methyl]-7′,8′-dihydro-3′-hydroxy-4′-oxo-spiro[cyclobutane-1,9′(6′H)-[4H]pyrido[1,2-α]pyrimidine]-2′-carboxamide], the 50% inhibitory concentration (IC50) was in the range of 10 to 100 nM. Turning to `COc1ccc(CNC(=O)c2nc3n(c(=O)c2O)CCCC32CCC2)cc1` [Example 64, N-[(4-methoxyphenyl)methyl]-7′,8′-dihydro-3′-hydroxy-4′-oxo-spiro[cyclobutane-1,9′(6H)^1-[4H]pyrido[1,2-α]pyrimidine]-2′-carboxamide], the IC50 was 10 to 100 nM.

Take `O=C(NCc1ccc(F)cc1N1CCCCS1(=O)=O)c1nc2n(c(=O)c1O)CCCC21CCCC1` [Example 9, N-[[4-fluoro-2-(tetrahydro-1,1-dioxido-2H-1,2-thiazin-2-yl)phenyl]methyl]-7′,8′-dihydro-3′-hydroxy-4′-oxo-spiro[cyclopentane-1,9′(6′H)-[4H]pyrido[1,2-α]pyrimidine]-2′-carboxamide]: the IC50 was in the range of 1 to 10 nM.

The assay is the same for the next values; noted with them: Table 1a; recombinant integrase, activity class.
Take `Cc1ncnn1-c1cc(F)ccc1CNC(=O)c1nc2n(c(=O)c1O)CCN(C)C21CCC1` [Example 100, Spiro[cyclobutane-1,9′(6′H)-[4H]pyrazino[1,2-a]pyrimidine]-2′-carboxamide, N-[[4-fluoro-2-(5-methyl-1H-1,2,4-triazol-1-yl)phenyl]methyl]-7′,8′-dihydro-3′-hydroxy-8′-methyl-4′-oxo-]: the IC50 was 10 to 100 nM. Take `O=C(NCc1ccc(F)cc1)c1nc2n(c(=O)c1O)CCNC21CCC1` [Example 132, Spiro[cyclobutane-1,9′(6′H)-[4H]pyrazino[1,2-a]pyrimidine]-2′-carboxamide, N-[(4-fluorophenyl)methyl]-7′,8′-dihydro-3′-hydroxy-4′-oxo-]: the IC50 lay in the range of 1 to 10 nM. Regarding `O=C(NCc1ccccc1N1CCOC1=O)c1nc2n(c(=O)c1O)CCOC21CCC1` [Example 126, Spiro[cyclobutane-1,9′(4′H)-pyrimido[2,1-c][1,4]oxazine]-2′-carboxamide, 6′,7′-dihydro-3′-hydroxy-4′-oxo-N-[[2-(2-oxo-3-oxazolidinyl)phenyl]methyl]-], the IC50 was in the range of 1 to 10 nM.

Turning to `O=C(NCc1ccc(F)cc1-n1cncn1)c1nc2n(c(=O)c1O)CCNC21CCC1` [Example 131], the IC50 is 1 to 10 nM.
